# Species: Rattus norvegicus
# Test: DrugMatrix - Regimen: Daily Repeat
# Assay type: toxicity, organism-based, Sprague-Dawley
# Design: regimen Daily Repeat, gender Male, age 6-8 weeks
# Conditions: in vivo, po, route oral GAVAGE, vehicle 100 % WATER; for ABSOLUTE BASOPHIL / ABSOLUTE EOSINOPHIL / ABSOLUTE LYMPHOCYTE / ABSOLUTE MONOCYTE / ABSOLUTE SEGMENTED NEUTROPHIL / BASOPHIL / EOSINOPHIL / ERYTHROCYTE COUNT / HEMATOCRIT / HEMOGLOBIN / LEUKOCYTE COUNT / LYMPHOCYTE / MEAN CORPUSCULAR HEMOGLOBIN / MEAN CORPUSCULAR HEMOGLOBIN CONCENTRATION / MEAN CORPUSCULAR VOLUME / MONOCYTE / NEUTROPHIL / NUCLEATED RED BLOOD CELLS / PLATELET COUNT: tissue Blood; for ALANINE AMINOTRANSFERASE / ALBUMIN / ALKALINE PHOSPHATASE / ASPARTATE AMINOTRANSFERASE / BLOOD UREA NITROGEN / CARBON DIOXIDE / CHLORIDE / CHOLESTEROL / CREATINE PHOSPHOKINASE / CREATININE / GLUCOSE / LACTATE DEHYDROGENASE / LIPASE / PHOSPHORUS / POTASSIUM / SODIUM / TOTAL BILIRUBIN / TOTAL PROTEIN / URIC ACID: tissue Plasma
# [1] = 0 mg/kg, 72 h, dose level Control, time 3 day
# [2] = 0 mg/kg, 120 h, dose level Control, time 5 day
# [3] = 100 mg/kg, 72 h, dose level Low, time 3 day
# [4] = 100 mg/kg, 120 h, dose level Low, time 5 day
smiles,measurement,setting,value
C[C@](N)(Cc1ccc(O)c(O)c1)C(=O)O [METHYLDOPA],ABSOLUTE BASOPHIL,[1],0 CELLS/uL
same,ABSOLUTE EOSINOPHIL,[1],46 CELLS/uL
same,ABSOLUTE LYMPHOCYTE,[1],10225.67 CELLS/uL
same,ABSOLUTE MONOCYTE,[1],319.33 CELLS/uL
same,ABSOLUTE SEGMENTED NEUTROPHIL,[1],1242.33 CELLS/uL
same,BASOPHIL,[1],0%
same,EOSINOPHIL,[1],0.33%
same,ERYTHROCYTE COUNT,[1],5.17 x10E6/uL
same,HEMATOCRIT,[1],33.43%
same,HEMOGLOBIN,[1],12.55 G/DL
same,LEUKOCYTE COUNT,[1],11.83 x10E3/uL
same,LYMPHOCYTE,[1],86.5%
same,MEAN CORPUSCULAR HEMOGLOBIN,[1],24.35 pg
same,MEAN CORPUSCULAR HEMOGLOBIN CONCENTRATION,[1],37.57 G/DL
same,MEAN CORPUSCULAR VOLUME,[1],64.8 fL
same,MONOCYTE,[1],2.67%
same,NEUTROPHIL,[1],10.5%
same,NUCLEATED RED BLOOD CELLS,[1],0.17 /100WBC
same,PLATELET COUNT,[1],1026.17 x10E3/uL
same,ALANINE AMINOTRANSFERASE,[1],52.67 u/L
same,ALBUMIN,[1],4.17 G/DL
same,ALKALINE PHOSPHATASE,[1],331 u/L
same,ASPARTATE AMINOTRANSFERASE,[1],92.33 u/L
same,BLOOD UREA NITROGEN,[1],15.33 mg/dL
same,CARBON DIOXIDE,[1],26.17 mmol/L
same,CHLORIDE,[1],103.17 MEQ/L
same,CHOLESTEROL,[1],73.67 mg/dL
same,CREATINE PHOSPHOKINASE,[1],472.83 u/L
same,CREATININE,[1],0.29 mg/dL
same,GLUCOSE,[1],178.5 mg/dL
same,LACTATE DEHYDROGENASE,[1],244.83 u/L
same,LIPASE,[1],10.67 u/L
same,PHOSPHORUS,[1],12.45 mg/dL
same,POTASSIUM,[1],6.35 MEQ/L
same,SODIUM,[1],144.27 MEQ/L
same,TOTAL BILIRUBIN,[1],0.13 mg/dL
same,TOTAL PROTEIN,[1],5.77 G/DL
same,URIC ACID,[1],2.08 mg/dL
same,ABSOLUTE BASOPHIL,[2],0 CELLS/uL
same,ABSOLUTE EOSINOPHIL,[2],23.5 CELLS/uL
same,ABSOLUTE LYMPHOCYTE,[2],12797.33 CELLS/uL
same,ABSOLUTE MONOCYTE,[2],465.5 CELLS/uL
same,ABSOLUTE SEGMENTED NEUTROPHIL,[2],1313.67 CELLS/uL
same,BASOPHIL,[2],0%
same,EOSINOPHIL,[2],0.17%
same,ERYTHROCYTE COUNT,[2],5.76 x10E6/uL
same,HEMATOCRIT,[2],36.72%
same,HEMOGLOBIN,[2],13.72 G/DL
same,LEUKOCYTE COUNT,[2],14.6 x10E3/uL
same,LYMPHOCYTE,[2],87.5%
same,MEAN CORPUSCULAR HEMOGLOBIN,[2],23.8 pg
same,MEAN CORPUSCULAR HEMOGLOBIN CONCENTRATION,[2],37.35 G/DL
same,MEAN CORPUSCULAR VOLUME,[2],63.72 fL
same,MONOCYTE,[2],3.17%
same,NEUTROPHIL,[2],9.17%
same,NUCLEATED RED BLOOD CELLS,[2],0.33 /100WBC
same,PLATELET COUNT,[2],1270.67 x10E3/uL
same,ALANINE AMINOTRANSFERASE,[2],50.5 u/L
same,ALBUMIN,[2],4.32 G/DL
same,ALKALINE PHOSPHATASE,[2],339.67 u/L
same,ASPARTATE AMINOTRANSFERASE,[2],88 u/L
same,BLOOD UREA NITROGEN,[2],17 mg/dL
same,CARBON DIOXIDE,[2],25 mmol/L
same,CHLORIDE,[2],103.83 MEQ/L
same,CHOLESTEROL,[2],71.33 mg/dL
same,CREATINE PHOSPHOKINASE,[2],281.83 u/L
same,CREATININE,[2],0.26 mg/dL
same,GLUCOSE,[2],161.67 mg/dL
same,LACTATE DEHYDROGENASE,[2],191.17 u/L
same,LIPASE,[2],10.17 u/L
same,PHOSPHORUS,[2],11.72 mg/dL
same,POTASSIUM,[2],6.76 MEQ/L
same,SODIUM,[2],145.17 MEQ/L
same,TOTAL BILIRUBIN,[2],0.2 mg/dL
same,TOTAL PROTEIN,[2],6.15 G/DL
same,URIC ACID,[2],2 mg/dL
same,ABSOLUTE BASOPHIL,[3],0 CELLS/uL
same,ABSOLUTE EOSINOPHIL,[3],0 CELLS/uL
same,ABSOLUTE LYMPHOCYTE,[3],10758.67 CELLS/uL
same,ABSOLUTE MONOCYTE,[3],142 CELLS/uL
same,ABSOLUTE SEGMENTED NEUTROPHIL,[3],1766 CELLS/uL
same,BASOPHIL,[3],0%
same,EOSINOPHIL,[3],0%
same,ERYTHROCYTE COUNT,[3],5.69 x10E6/uL
same,HEMATOCRIT,[3],36.1%
same,HEMOGLOBIN,[3],13.63 G/DL
same,LEUKOCYTE COUNT,[3],12.67 x10E3/uL
same,LYMPHOCYTE,[3],85.33%
same,MEAN CORPUSCULAR HEMOGLOBIN,[3],24.03 pg
same,MEAN CORPUSCULAR HEMOGLOBIN CONCENTRATION,[3],37.8 G/DL
same,MEAN CORPUSCULAR VOLUME,[3],63.63 fL
same,MONOCYTE,[3],1%
same,NEUTROPHIL,[3],13.67%
same,NUCLEATED RED BLOOD CELLS,[3],0 /100WBC
same,PLATELET COUNT,[3],1351.33 x10E3/uL
same,ALANINE AMINOTRANSFERASE,[3],54 u/L
same,ALBUMIN,[3],4.2 G/DL
same,ALKALINE PHOSPHATASE,[3],332.33 u/L
same,ASPARTATE AMINOTRANSFERASE,[3],92.67 u/L
same,BLOOD UREA NITROGEN,[3],19.33 mg/dL
same,CARBON DIOXIDE,[3],25.67 mmol/L
same,CHLORIDE,[3],102.67 MEQ/L
same,CHOLESTEROL,[3],84 mg/dL
same,CREATINE PHOSPHOKINASE,[3],281.67 u/L
same,CREATININE,[3],0.24 mg/dL
same,GLUCOSE,[3],161.33 mg/dL
same,LACTATE DEHYDROGENASE,[3],210.33 u/L
same,LIPASE,[3],13 u/L
same,PHOSPHORUS,[3],12.67 mg/dL
same,POTASSIUM,[3],7.2 MEQ/L
same,SODIUM,[3],145.7 MEQ/L
same,TOTAL BILIRUBIN,[3],0.23 mg/dL
same,TOTAL PROTEIN,[3],6.07 G/DL
same,URIC ACID,[3],2.93 mg/dL
same,ABSOLUTE BASOPHIL,[4],0 CELLS/uL
same,ABSOLUTE EOSINOPHIL,[4],0 CELLS/uL
same,ABSOLUTE LYMPHOCYTE,[4],9543.67 CELLS/uL
same,ABSOLUTE MONOCYTE,[4],215.33 CELLS/uL
same,ABSOLUTE SEGMENTED NEUTROPHIL,[4],1341 CELLS/uL
same,BASOPHIL,[4],0%
same,EOSINOPHIL,[4],0%
same,ERYTHROCYTE COUNT,[4],5.03 x10E6/uL
same,HEMATOCRIT,[4],32.97%
same,HEMOGLOBIN,[4],12.67 G/DL
same,LEUKOCYTE COUNT,[4],11.1 x10E3/uL
same,LYMPHOCYTE,[4],86%
same,MEAN CORPUSCULAR HEMOGLOBIN,[4],25.17 pg
same,MEAN CORPUSCULAR HEMOGLOBIN CONCENTRATION,[4],38.47 G/DL
same,MEAN CORPUSCULAR VOLUME,[4],65.47 fL
same,MONOCYTE,[4],1.67%
same,NEUTROPHIL,[4],12.33%
same,NUCLEATED RED BLOOD CELLS,[4],0 /100WBC
same,PLATELET COUNT,[4],979.33 x10E3/uL
same,ALANINE AMINOTRANSFERASE,[4],56.67 u/L
same,ALBUMIN,[4],4.1 G/DL
same,ALKALINE PHOSPHATASE,[4],363.67 u/L
same,ASPARTATE AMINOTRANSFERASE,[4],90 u/L
same,BLOOD UREA NITROGEN,[4],17 mg/dL
same,CARBON DIOXIDE,[4],24.33 mmol/L
same,CHLORIDE,[4],103.33 MEQ/L
same,CHOLESTEROL,[4],67 mg/dL
same,CREATINE PHOSPHOKINASE,[4],265.33 u/L
same,CREATININE,[4],0.56 mg/dL
same,GLUCOSE,[4],159 mg/dL
same,LACTATE DEHYDROGENASE,[4],154.33 u/L
same,LIPASE,[4],13.33 u/L
same,PHOSPHORUS,[4],11.83 mg/dL
same,POTASSIUM,[4],6.26 MEQ/L
same,SODIUM,[4],145.33 MEQ/L
same,TOTAL BILIRUBIN,[4],0.17 mg/dL
same,TOTAL PROTEIN,[4],5.8 G/DL
same,URIC ACID,[4],1.6 mg/dL
